The experiment concerns the target T1, VrCIII2 (complex III dimer, cytochrome bc1 complex); cytochrome b (COB) sites (Vigna radiata, UniProt E9KZM1).
T1 construct: native obligate dimer, 10 subunits per monomer, from mitochondria of etiolated hypocotyls; digitonin-extracted, amphipol A8-35; RNA-edited COB; partially purified (sucrose gradient); with Cytochrome c1, heme protein, mitochondrial; Cytochrome b-c1 complex subunit Rieske, mitochondrial; Mitochondrial-processing peptidase subunit alpha; Mitochondrial-processing peptidase subunit beta; Cytochrome b-c1 complex subunit 6; Cytochrome b-c1 complex subunit 7; Cytochrome b-c1 complex subunit 8; Cytochrome b-c1 complex subunit 9; Cytochrome b-c1 complex subunit 10
The experiment can be described thus: spectroscopic cytochrome c reduction at […] nm, pooled gradient fractions. It counts as biochemical. As to conditions: 100 uM reduced decylubiquinone, 100 uM equine cyt c, pH 7.8, room temperature.

With `CCCCCCCCCCc1c(C)c(O)c(OC)c(OC)c1O` [reduced decylubiquinone], the “spectroscopic cytochrome c reduction at 550 nm, pooled gradient fractions” value is given as “CIII2 respiratory activity (electron transfer from reduced decylubiquinone to cytochrome c)”.

The values are drawn from paper PMC7815315, “Atomic structures of respiratory complex III2, complex IV, and supercomplex III2-IV from vascular plants” (eLife, 2021).
